We go through 14 molecules from PMC12114375, “Discovery of Hydrazineyl Amide Derivative of Pseudolaric Acid B for Reprogramming Tumor-Associated Macrophages Against Tumor Growth” (Molecules, 2025).

What all share (type): cell-based, mouse
The test system of data set [1] is ARG1 mRNA expression in RAW 264.7 cells. Description: qRT-PCR of ARG1 mRNA in IL-4/IL-13-stimulated RAW 264.7 cells. The following applies: 12 h, mean ± SD; for mrna remaining at 10 µM: RAW264.7, IL-4/IL-13 (20 ng/mL) plus compound 10 μM; for mrna remaining at 10 µM / ARG1 mRNA Relative Expression (%): stimulated control = 100%; for ARG1 mRNA Relative Expression (%): IL-4/IL-13 (20 ng/mL) plus compound 10 μM. The text has this: (§1) We first investigated the impacts of a series of commercially available natural pseudolaric acids or their O-pyranosides (Figure 1) on the pro-tumoral phenotype of TAMs, which play a critical role in anti-tumor immune response modulation. […] In contrast, M1-biased macrophages combat tumor growth and bacterial infections by expressing inducible nitric oxide synthase 2 (NOS2), which catalyzes the production of nitric oxide (NO). Recognizing the pivotal roles of ARG1 and NOS2, we utilized these molecules as key biomarkers and effectors for assessing macrophage immune function. In our experiments, the mouse monocyte–macrophage leukemia cell line RAW 264.7 was induced with IL-4/IL-13 to acquire an M2-like pro-tumoral phenotype. Concurrently, the cells were treated with the pseudolaric acid-related natural products 1–7 at a concentration of 10 μM for 12 h. Additionally, PLX3397 was used as a positive control at a concentration of 0.5 μM. […] As shown in Table 1 and Figure S1A, pseudolaric acid B (1), its deacetoxyl analogue 2 (pseudolaric acid C), and β-D-glucoside 7 substantially attenuated the upregulation of ARG1 mRNA expression induced by IL-4/IL-13, with statistically significant effects. In contrast, bis-carboxylic acids analogs 4 (pseudolaric acid C2) and 6 (demethoxydeacetoxypseudolaric acid B) have no significant impact on ARG1 mRNA expression.
(§2) With these carboxylic acid-modified derivatives in hand, we investigated their impact at 10 μM on ARG1 and NOS2 mRNA expression in RAW 264.7 cells pre-stimulated with IL-4/IL-13 to evaluate the effects on the pro-tumor phenotype of macrophages. […] Further removal of one hydroxyl from the glycerol moiety 15 further enhanced the inhibitory effect on ARG1 expression but had no significant impact on NOS2 expression.
(§3) Total RNA was isolated from cells using the EZ-press RNA Purification Kit (EZBioscience, Suzhou, China) and subjected to reverse transcription with the 5×HiScript II qRT SuperMix II (Vazyme, Nanjing, China). PCR was performed with the 2×ChamQ Universal SYBR qPCR Master Mix (Vazyme, Nanjing, China). All primers for qRT-PCR are described in Table S1. The 2^−∆∆Ct method was utilized to calculate the fold change in gene expression, with the expression levels in the stimulated group set as the baseline for normalization.
In general terms: Quantitative PCR measures a nucleic acid by following its amplification.

Data set [2] has as its system NOS2 mRNA expression in RAW 264.7 cells. Description: qRT-PCR of NOS2 mRNA in IL-4/IL-13-stimulated RAW 264.7 cells. As to conditions: 12 h, mean ± SD; for activity at 10 µM: RAW264.7, IL-4/IL-13 (20 ng/mL) plus compound 10 μM; for activity at 10 µM / NOS2 mRNA Relative Expression (%): stimulated control = 100%; for NOS2 mRNA Relative Expression (%): IL-4/IL-13 (20 ng/mL) plus compound 10 μM.
From the text: as §1, §2, §3

The next data set concerns Raw264.7 cells. Description: Cell viability (CCK-8) of RAW264.7 cells. As to conditions: IL-4/IL-13 plus compound 10 μM, 12 h. As for the experimental part:
Cells were seeded in 96-well tissue culture plates. On the next day, cells were exposed to various concentrations of compounds and further cultured for the indicated period. Finally, cell proliferation was determined by using the Cell Counting Kit (CCK-8) (Dojindo, Kumamoto, Japan) assay.
Figure S2. Effects of natural pseudolaric acids 1-4, 6 and their O-pyranosides 5, 7 as well as the derivatives 8-18 o f 1 on Raw264.7 cell viability. Raw264.7 cells were treated with IL-4/IL-13 alone or combined with indicated compounds (10 μM) for 12 h. After incubation, the cell viability was determined using a cell counting kit (CCK-8, Dojindo, Japan) assay.
(1 picture or pasted object on this page, not shown here)

The mark [3] stands for this setting: Mus musculus, read-out: ARG1 mRNA Relative Expression (%).
[4] abbreviates: Mus musculus, read-out: NOS2 mRNA Relative Expression (%).

As to `CC(=O)O[C@]12CCC(C(=O)O)=CC[C@]13CC[C@H]2[C@@](C)(/C=C/C=C(\C)C(=O)O)OC3=O` [compound 4, pseudolaric acid C2, reference compound], the mrna remaining at 10 µM in data set [1] (setting [3]) was found to be 87.4 ± 25.4%. Also, the activity at 10 µM in data set [2] (setting [4]) came to 131 ± 14.5%.

Consider `COC(=O)C1=CC[C@@]23CC[C@@H]([C@@](C)(/C=C/C=C(\C)C(=O)OC4O[C@H](COC(C)=O)[C@@H](OC(C)=O)C(OC(C)=O)[C@H]4OC(C)=O)OC2=O)[C@@]3(OC(C)=O)CC1` (stereo partly drawn) [compound 16, (3R,5R,6R)-2-(((2E,4E)-5-((3R,4S,4aS,9aR)-4a-Acetoxy-7-(methoxycarbonyl)-3-methyl-1-oxo-3,4,4a,5,6,9-hexahydro-1H-4,9a-ethanocyclohepta[c]pyran-3-yl)-2-methylpenta-2,4-dienoyl)oxy)-6-(acetoxymethyl)tetrahydro-2H-pyran-3,4,5-triyl triacetate], for which the mrna remaining at 10 µM in data set [1] (setting [3]) stood at 80 ± 27.5%. Further, the activity at 10 µM in data set [2] (setting [4]) is 95.2 ± 23%.

Turning to `COC(=O)C1=CC[C@@]23CC[C@@H]([C@@](C)(/C=C/C=C(\C)C(=O)O[C@@H]4O[C@H](CO)[C@@H](O)[C@H](O)[C@H]4O)OC2=O)[C@@]3(OC(C)=O)CC1` [compound 7, reference compound], the cell viability entry with Raw264.7 cells was “only a minimal reduction in cell viability”. Besides, the mrna remaining at 10 µM in data set [1] (setting [3]) came out at 21.2 ± 13%. The activity at 10 µM in data set [2] (setting [4]) stood at 307 ± 36.2%.

For the molecule `COC(=O)C1=CC[C@@]23CC[C@@H]([C@@](C)(/C=C/C=C(\C)C(=O)NC(CO)(CO)CO)OC2=O)[C@@]3(OC(C)=O)CC1` [compound 14, Methyl(3R,4S,4aS,9aR)-4a-acetoxy-3-((1E,3E)-5-((1,3-dihydroxy-2-(hydroxymethyl)propan-2-yl)amino)-4-methyl-5-oxopenta-1,3-dien-1-yl)-3-methyl-1-oxo-3,4,4a,5,6,9-hexahydro-1H-4,9a-ethanocyclohepta[c]pyran-7-carboxylate], the mrna remaining at 10 µM in data set [1] (setting [3]) was 42.2 ± 9.5%. Besides, the activity at 10 µM in data set [2] (setting [4]) is 136 ± 8%.

Regarding “(2E,4E)-5-((3R,4S,4aS,9aR)-4a-acetoxy-7-(methoxycarbonyl)-3-methyl-1-oxo-3,4,4a,5,6,9-hexahydro-1H-4,9a-ethanocyclohepta[c]pyran-3-yl)-2-methylpenta-2,4-dienoic acid [compound 15]”, the “ARG1 mRNA Relative Expression (%)” value in data set [1] was determined as 18.7 ± 18.0%. Besides, the “NOS2 mRNA Relative Expression (%)” value in data set [2] worked out at 130.3 ± 5.8%.

As for `CC(=O)O[C@]12CCC(C)=CC[C@]13CC[C@H]2[C@@](C)(/C=C/C=C(\C)C(=O)O)OC3=O` [compound 3, pseudolaric acid A, reference compound], the mrna remaining at 10 µM in data set [1] (setting [3]) was 343 ± 27.9%. Moreover, the activity at 10 µM in data set [2] (setting [4]) came to 297 ± 6.8%.

Turning to `COC(=O)C1=CC[C@@]23CC[C@@H]([C@@](C)(/C=C/C=C(\C)C(=O)NCC(F)(F)F)OC2=O)[C@@]3(OC(C)=O)CC1` [compound 9, Methyl (3R,4S,4aS,9aR)-4a-acetoxy-3-methyl-3-((1E,3E)-4-methyl-5-oxo-5-((2,2,2-trifluoroethyl)amino)penta-1,3-dien-1-yl)-1-oxo-3,4,4a,5,6,9-hexahydro-1H-4,9a-ethanocyclohepta[c]pyran-7-carboxylate], the mrna remaining at 10 µM in data set [1] (setting [3]) was determined as 7.4%. Moreover, the “NOS2 mRNA Relative Expression (%)” value in data set [2] was 148.7 ± 14.1%. In addition, the activity at 10 µM in data set [2] (setting [4]) was found to be 149%.

With `COC(=O)C1=CC[C@@]23CC[C@@H]([C@@](C)(/C=C/C=C(\C)C(=O)NCC(C)O)OC2=O)[C@@]3(OC(C)=O)CC1` (stereo partly drawn) [compound 10, Methyl(3R,4S,4aS,9aR)-4a-acetoxy-3-((1E,3E)-5-((2-hydroxypropyl)amino)-4-methyl-5-oxopenta-1,3-dien-1-yl)-3-methyl-1-oxo-3,4,4a,5,6,9-hexahydro-1H-4,9a-ethanocyclohepta[c]pyran-7-carboxylate], in data set [1] (setting [3]), the mrna remaining at 10 µM turned out to be 7.5%. Further, in data set [2] (setting [4]), the activity at 10 µM was 103 ± 7.2%.

As to “(2R,3S,4S,5R,6R)-6-(((2E,4E)-5-((3R,4S,4aS,9aR)-4a-Acetoxy-7-(methoxycarbonyl)-3-methyl-1-oxo-3,4,4a,5,6,9-hexahydro-1H-4,9a-ethanocyclohepta[c]pyran-3-yl)-2-methylpenta-2,4-dienoyl)oxy)tetrahydro-2H-pyran-2,3,4,5-tetrayl tetraacetate [compound 18]”, the “ARG1 mRNA Relative Expression (%)” value in data set [1] came to 42.6 ± 30.2%. Besides, the “NOS2 mRNA Relative Expression (%)” value in data set [2] came out at 58.7 ± 4.5%.

`COC(=O)C1=CC[C@@]23CC[C@@H]([C@@](C)(/C=C/C=C(\C)C(=O)NCCN(CCO)CCO)OC2=O)[C@@]3(OC(C)=O)CC1` [compound 13, Methyl(3R,4S,4aS,9aR)-4a-acetoxy-3-((1E,3E)-5-((2-(bis(2-hydroxyethyl)amino)ethyl)amino)-4-methyl-5-oxopenta-1,3-dien-1-yl)-3-methyl-1-oxo-3,4,4a,5,6,9-hexahydro-1H-4,9a-ethanocyclohepta[c]pyran-7-carboxylate]: the mrna remaining at 10 µM in data set [1] (setting [3]) turned out to be 72.2 ± 10.2%. In addition, the activity at 10 µM in data set [2] (setting [4]) worked out at 134 ± 5%.

Turning to `CC(=O)O[C@]12CCC(C)=CC[C@]13CC[C@H]2[C@@](C)(/C=C/C=C(\C)C(=O)O[C@@H]1O[C@H](CO)[C@@H](O)[C@H](O)[C@H]1O)OC3=O` [compound 5, reference compound], the mrna remaining at 10 µM in data set [1] (setting [3]) came to 16.2 ± 9.2%. The activity at 10 µM in data set [2] (setting [4]) is 158 ± 17.2%.

For the molecule `COC(=O)C1=CC[C@@]23CC[C@@H]([C@@](C)(/C=C/C=C(\C)C(=O)O[C@H]4OC[C@@H](OC(C)=O)[C@H](OC(C)=O)[C@H]4OC(C)=O)OC2=O)[C@@]3(OC(C)=O)CC1` [compound 17, (2R,3R,4S,5R)-2-(((2E,4E)-5-((3R,4S,4aS,9aR)-4a-Acetoxy-7-(methoxycarbonyl)-3-methyl-1-oxo-3,4,4a,5,6,9-hexahydro-1H-4,9a-ethanocyclohepta[c]pyran-3-yl)-2-methylpenta-2,4-dienoyl)oxy)tetrahydro-2H-pyran-3,4,5-triyl triacetate], in data set [1] (setting [3]), the mrna remaining at 10 µM amounted to 32.3 ± 19.2%. For the same molecule, the activity at 10 µM in data set [2] (setting [4]) was 91.3 ± 6.9%.

On to `FC(F)(F)c1ccc(CNc2ccc(Cc3c[nH]c4ncc(Cl)cc34)cn2)cn1` [PLX3397, reference compound], for which the mrna remaining at 0.5 µM in data set [1] (Mus musculus, RAW264.7, IL-4/IL-13 (20 ng/mL) plus positive control 0.5 μM, read-out: ARG1 mRNA Relative Expression (%)) turned out to be 3.2 ± 2.4%. In addition, the activity at 0.5 µM in data set [2] (Mus musculus, RAW264.7, IL-4/IL-13 (20 ng/mL) plus positive control 0.5 μM, read-out: NOS2 mRNA Relative Expression (%)) was 193 ± 10.2%.

As to `COC(=O)C1=CC[C@@]23CC[C@@H]([C@@](C)(/C=C/C=C(\C)C(=O)O)OC2=O)[C@@]3(O)CC1` [compound 2, pseudolaric acid C, reference compound], in data set [1] (setting [3]), the mrna remaining at 10 µM came to 17.3 ± 9.1%. In addition, the activity at 10 µM in data set [2] (setting [4]) was 80.1 ± 15.6%.
